Read-outs that look alike come from different tables or passages of the source.
Columns and labels:
[1] = tested on: IL-1β production in THP-1 cells (LPS and ATP; NLRP3 inflammasome activation); test: THP-1 IL-1β production inhibitory test; format: cell-based, human; settings: PMA-differentiated THP-1 cells, LPS 50 ng/mL and ATP 5 mM, 2 hours, ELISA, read-out: IC50 (nM), IL-1β production
In short: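 THP-1 cells were differentiated with 50 ng/mL PMA for 2 days, then held 15 min at 37 °C. Cells were stimulated with 50 ng/mL LPS plus 5 mM ATP for 2 h, and supernatant IL-1β was measured by ELISA. IC50 came from sigmoidal Emax nonlinear regression.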

[2] = tested on: TNF-α production in THP-1 cells (LPS); test: TNF-α production inhibitory test; format: cell-based; settings: Homo sapiens; PMA-differentiated THP-1 cells, LPS 50 ng/mL, 2 hours, ELISA
Protocol: TNF-α Production Inhibitory Test
To THP-1 cells, 50 ng/mL PMA (phorbol myristate acetate, SIGMA, P1585) was added and then the cells were cultured at 37° C. for 2 days. The culture medium was exchanged with serum-free RPMI-1640 medium, and a compound known in concentration was added. The cells were cultured at 37° C. for 15 minutes. LPS (lipopolysaccharide, SIMGA, L2880) was added such that the final concentrations of them became 50 ng/mL. The cells were cultured at 37° C. for 2 hours. The supernatant was collected and the concentration of TNF-α was measured by ELISA (DuoSet ELISA human TNF-α, R&D Systems, DY201). The concentration of TNF-α was plotted against the logarithm of the concentration of the test compound, and the IC50 value was calculated by sigmoidal Emax model nonlinear regression analysis.

3T3 NRU phototoxicity = test: In vitro phototoxicity test (3T3 NRU); format: cell-based; settings: ICH S10 / OECD 432 in vitro 3T3 NRU phototoxicity test
From the text: In Vitro Phototoxicity Test
The evaluation of in vitro phototoxicity tests was based on ICH S10: Guidelines for Evaluation of Phototoxicity of Drugs (Notification No. 0521-1) and OECD guideline for testing of chemicals 432: In vitro 3T3 NRU phototoxicity test, 2004, which was described in the OECD report.

[3] = molecular target: human Ether-a-go-go Related Gene (hERG) channel (Homo sapiens, UniProt Q12809); test: Safety pharmacological test: hERG channel inhibitory effect; format: biochemical
Sequence of human Ether-a-go-go Related Gene (hERG) channel (Q12809 whole entry): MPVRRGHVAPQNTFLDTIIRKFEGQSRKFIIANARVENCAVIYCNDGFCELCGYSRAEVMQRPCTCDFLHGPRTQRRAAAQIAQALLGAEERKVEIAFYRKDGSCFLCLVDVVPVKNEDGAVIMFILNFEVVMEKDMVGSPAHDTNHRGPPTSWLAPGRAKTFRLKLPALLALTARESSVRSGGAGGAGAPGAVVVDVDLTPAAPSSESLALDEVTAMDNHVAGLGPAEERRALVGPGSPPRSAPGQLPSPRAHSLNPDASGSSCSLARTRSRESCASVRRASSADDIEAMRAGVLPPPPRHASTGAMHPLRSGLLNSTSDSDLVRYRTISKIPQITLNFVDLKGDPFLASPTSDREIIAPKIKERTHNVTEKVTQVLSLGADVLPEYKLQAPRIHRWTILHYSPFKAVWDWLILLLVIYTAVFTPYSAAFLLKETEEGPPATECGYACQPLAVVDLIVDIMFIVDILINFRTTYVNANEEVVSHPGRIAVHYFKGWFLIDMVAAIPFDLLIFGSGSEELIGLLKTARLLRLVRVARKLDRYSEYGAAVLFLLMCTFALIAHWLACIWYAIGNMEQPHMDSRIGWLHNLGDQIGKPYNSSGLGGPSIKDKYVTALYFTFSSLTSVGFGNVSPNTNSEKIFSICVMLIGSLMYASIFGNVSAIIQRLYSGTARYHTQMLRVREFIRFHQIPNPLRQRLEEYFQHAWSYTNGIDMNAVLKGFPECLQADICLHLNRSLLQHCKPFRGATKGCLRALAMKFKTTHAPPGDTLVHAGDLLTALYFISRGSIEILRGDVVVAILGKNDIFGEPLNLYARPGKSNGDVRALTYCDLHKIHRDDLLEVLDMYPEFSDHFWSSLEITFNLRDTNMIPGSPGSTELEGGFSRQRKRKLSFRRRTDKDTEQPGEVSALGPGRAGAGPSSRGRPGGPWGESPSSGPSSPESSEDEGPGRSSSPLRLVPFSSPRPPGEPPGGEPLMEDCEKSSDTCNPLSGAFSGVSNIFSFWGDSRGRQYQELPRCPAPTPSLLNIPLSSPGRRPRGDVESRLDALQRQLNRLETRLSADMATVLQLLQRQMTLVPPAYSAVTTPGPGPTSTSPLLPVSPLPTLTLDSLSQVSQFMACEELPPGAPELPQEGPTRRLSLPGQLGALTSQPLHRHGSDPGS
Protocol: Safety Pharmacological Test
As a safety pharmacological test, the human Ether-a-go-go Related Gene (hereinafter referred to as hERG) channel inhibitory effect was evaluated. The hERG channel inhibitory effect was evaluated using a modified method described in Combinatorial Chemistry & High Throughput Screening, 12, 1, 78-95 (2009).

Row | IC50 [1] | SMILES | IC50 ([1]; Homo sapiens, THP-1, 2 h) | IC50 [2] | phototoxic effect (3T3 NRU phototoxicity) | IC50 [3]
1 | – | Cc1nc(N[C@@H]2CCC[C@H](O)C2)nnc1-c1ccc(C(F)(F)F)cc1O [Example 75, 2-(3-{[(1R,3S)-3-hydroxycyclohexyl]amino}-5-methyl-1,2,4-triazin-6-yl)-5-(trifluoromethyl)phenol] | 6.5 nM | ≥ 10 µM | no phototoxic effect | ≥ 10 µM
2 | – | COc1ccc(-c2nnc(N[C@@H]3CCCC[C@H]3O)nc2C)c(O)c1 [Example 59, 2-(3-{[(1R,2R)-2-hydroxycyclohexyl]amino}-5-methyl-1,2,4-triazin-6-yl)-5-methoxyphenol] | 14 nM | ≥ 10 µM | no phototoxic effect | ≥ 10 µM
3 | 1.5 nM | Cc1nc(N[C@@H]2CCCN(C)C2)nnc1-c1ccc(C(F)(F)F)cc1O [Example 164] | – | ≥ 10 µM | no phototoxic effect | ≥ 10 µM
4 | – | Cc1nc(N[C@@H]2CCCC[C@H]2O)nnc1-c1ccc(OC(F)F)cc1O [Example 131, 5-(difluoromethoxy)-2-(3-{[(1R,2R)-2-hydroxycyclohexyl]amino}-5-methyl-1,2,4-triazin-6-yl)phenol] | 9.5 nM | ≥ 10 µM | no phototoxic effect | ≥ 10 µM
5 | – | Cc1nc(N[C@@H]2CCCC[C@H]2N)nnc1-c1ccc(C(F)(F)F)cc1O [Example 132, 2-(3-{[(1R,2R)-2-aminocyclohexyl]amino}-5-methyl-1,2,4-triazin-6-yl)-5-(trifluoromethyl)phenol] | 15 nM | ≥ 10 µM | no phototoxic effect | ≥ 10 µM
